According to patent US5968912A, “Methods for immunosuppressing” (Immune Modulation, Inc., priority 1997, dated 1999):

How the values were obtained:
[1] = tested on: Protein Kinase-C-Mediated T-cell Proliferation (PBMC); assay: PK-C-mediated T-cell proliferation (PMA + A23187); format: cell-based, human; conditions: PMA 1.25 ng/mL + A23187 0.25 μM
Procedure: Determination of the effect of HE-33 on PK-C-mediated signaling pathway
PBMC of a healthy volunteer were cultured in 96-well microtiter plates at 2×10^5 cells/well. […] Forskolin is an agent well known to increase intacellular cAMP levels by activating adenylate cyclase. Cultures were incubated for 3 days at 37° C. in a 5% CO2 incubator. Proliferative response was determined by incorporation of ^3 H-thymidine.. The results were expressed in CPM and % inhibition of proliferation (Table 7).

[2] = tested on: H-2K anti-H-2d cytotoxic T-cells; assay: Generation of H-2K anti-H-2d cytotoxic T-cell activity in mice, ex vivo 51Cr-release assay; set-up: species or system mouse (C3H/J; DBA/2 targets)
Procedure: Generation of H-2 Restricted Cytolytic T-lymphocytes in Mice
A mouse correlate of the human "one-way MLR" was developed in inbred strains of mice. The cells of one mouse strain (H-2^d) were injected i.v. into a different mouse strain (H-2^k). Mice were obtained from Charles River Laboratories, Hollister, Calif.). Because of the histoincompatibility between the two strains, the H-2^k mice develop cytotoxic T-cells capable of killing the cells of the H-2^d strain of mice (Abbas, A. K., id), which is the type of reaction observed in humans or animals receiving tissue grafts from histoincompatible donors. The H-2^k mice sensitized against H-2^d cells/allo-antigens were treated with either HE-33 (100 mg/kg i.v. or 400 mg/kg orally) every three days for 9 days or were not treated with drug.
Ex Vivo Assay. On the tenth day, all mice were sacrificed, and spleens were removed to test for splenic T-cell-mediated cytotoxicity against CON-A stimulated DBA/2 spleen cells expressing the H-2^d antigens. CON-A was obtained from Sigma Chem. Co., St. Louis, Mo. Spleen cell suspensions were prepared in complete culture medium and adjusted to desired concentrations. The CON-A blast cells were radiolabeled with ^51 Cr and mixed with the respective splenic effector cells at varying effector:target cell ratios in 96-well microtiter plates. The mixtures were cultured for 4 hr. at 37° C. in a 5% CO2 incubator. Lysis of target cells were assessed essentially as described previously for a ^51 Cr-release assay (Ojo-Amaize, E. A., et al., id) and results expressed as % specific lysis (FIG. 1).
*C3 H/J mouse was injected with 2 × 10^7 DBA/2 spleen cell
for 9 days. HE33 was administered either orally (400 mg/kg) or
intravenously (100 mg/kg) on day 0 and every three days. ConA stimulated
DBA/2 spleen cells were used as target cells.

[3] = tested on: Swiss Webster mice; assay: Single dose range-finding toxicity study in mice; format: in vivo, mouse (Swiss Webster); set-up: key to Clinical observation: Normal / Clinical observation: Vocalization / Clinical observation: Slow breathing / Clinical observation: Hypoactive / Clinical observation: FPSR / Clinical observation: Cool to touch / Clinical observation: Hypoactivity: Observations are recorded as present (x); not observed (--)
Procedure: (§1) Single dose range-finding study of HE-33 in mice
(§2) Swiss Webster mice (Charles River Laboratories, Hollister, Calif.) were used for the preliminary toxicology study. One mouse per dose level was administered a single intravenous (IV) dose of either 1.5, 15, 75, 100, 150, 200, 300 or 400 mg of HE-33/kg body weight. The dose volume for all mice receiving saline or formulations of HE-3 3 was 10 mL/kg body weight. All doses were administered as a slow-push IV injection in the tail vein. Day 1 of the study for each mouse occurred on the day of administration of the drug or the saline.
(§3) Clinical observations/body weights
(§4) Each mouse was observed closely for clinical signs of toxicity at approximately 10, 30 and 60 minutes and 5 hours after dosing on Day 1, and once daily on Days 2-8. In addition, mortality checks were performed twice daily. Body weights were obtained on each mouse prior to dosing on Day 1. Body weights (Day 1) for the mice used in this study ranged between 27.3 and 32.5 g (Table 8).
(§5) ^a Animals were dosed with saline adjusted to pH 8.55.
(§6) ^b Observations are recorded as present (x) or not observed (--).
(§7) ^c Additional observation was reported in the time interval closest t
(§8) ^d FPSR = Flattened posture with or without closed eyes; animal would
(§9) periodically have a startled response in response to or without a noise

[4] = Single dose range-finding toxicity study in mice; format: in vivo, mouse (Swiss Webster); set-up: key to Clinical observation: Normal / Clinical observation: Vocalization / Clinical observation: Slow breathing / Clinical observation: Hypoactive / Clinical observation: FPSR / Clinical observation: Cool to touch / Clinical observation: Hypoactivity: Observations are recorded as present (x); not observed (--); conditions: mouse, in vivo, single IV administration, mice
Procedure: as §1, §2, §3, §4, §5, §6, §7, §8, §9

[5] = animal 3, 75 mg/kg IV, 30 min to day 8
[6] = animal 4, 150 mg/kg IV, 10, 30, 60 min
[7] = animal 4, 150 mg/kg IV, 5 hr to day 8
[8] = animal 5, 300 mg/kg IV, 10 min to 5 hr
[9] = animal 5, 300 mg/kg IV, days 2-8
[10] = animal 11, 300 mg/kg IV, 30, 60 min
[11] = animal 11, 300 mg/kg IV, 10 min and 5 hr to day 8

CCCN(CCC)c1ncnc2c1ncn2[C@@H]1O[C@@H]2COP(=O)(O)O[C@H]2[C@H]1O [HE-33, N^6,N^6 -di-n-Propyl-c-AMP]
Proliferation ([1]; 100 μM): 31 CPM
inhibition at 100 µM ([1]; Homo sapiens, T-cell): 97%
L.U. ([2]; I.V. injected 100 mg/kg): 1 L.U.
% Inhibition of cytotoxic T-cell activity ([2]; I.V. injected 100 mg/kg every three days): 92%
% Lysis ([2]; I.V. injected 100 mg/kg, ratio 3.12:1): 0%
% Lysis ([2]; I.V. injected 100 mg/kg, ratio 6.25:1): 0%
% Lysis ([2]; I.V. injected 100 mg/kg, ratio 12.5:1): 0%
% Lysis ([2]; I.V. injected 100 mg/kg, ratio 25:1): 1%
% Inhibition of cytotoxic T-cell activity ([2]; oral fed 400 mg/kg): 32%
L.U. ([2]; oral fed 400 mg/kg): 9 L.U.
% Lysis ([2]; oral fed 400 mg/kg, ratio 3.12:1): 1%
% Lysis ([2]; oral fed 400 mg/kg, ratio 6.25:1): 2%
% Lysis ([2]; oral fed 400 mg/kg, ratio 12.5:1): 2%
% Lysis ([2]; oral fed 400 mg/kg, ratio 25:1): 5%
Clinical signs of toxicity ([3]; 150-400 mg/kg IV, between 10 minutes and 5 hrs after dosing on Day 1): signs of hypoactivity, flattened posture with or without closed eyes and slow breathing
Clinical observation: Normal ([3]; animal 1, 1.5 mg/kg IV, all times 10 min to day 8): x
Clinical observation: Normal ([3]; animal 2, 15 mg/kg IV, all times 10 min to day 8): x
Clinical observation: Normal ([3]; animal 3, 75 mg/kg IV, 10 min): --
Clinical observation: Vocalization ([3]; animal 3, 75 mg/kg IV, 10 min): x
Clinical observation: Normal [3, 5]: x
Clinical observation: Vocalization [3, 5]: --
Clinical observation: FPSR [3, 6]: x
Clinical observation: Hypoactive [3, 6]: x
Clinical observation: Normal [3, 6]: --
Clinical observation: Slow breathing [3, 6]: x
Clinical observation: FPSR [3, 7]: --
Clinical observation: Hypoactive [3, 7]: --
Clinical observation: Normal [3, 7]: x
Clinical observation: Slow breathing [3, 7]: --
Clinical observation: FPSR ([3]; animal 5, 300 mg/kg IV, 10, 30, 60 min): x
Clinical observation: Cool to touch ([3]; animal 5, 300 mg/kg IV, 10, 30, 60 min and days 2-8): --
Clinical observation: Hypoactivity [3, 8]: x
Clinical observation: Normal [3, 8]: --
Clinical observation: Slow breathing [3, 8]: x
Clinical observation: Cool to touch ([3]; animal 5, 300 mg/kg IV, 5 hr): x
Clinical observation: FPSR ([3]; animal 5, 300 mg/kg IV, 5 hr to day 8): --
Clinical observation: Hypoactivity [3, 9]: --
Clinical observation: Normal [3, 9]: x
Clinical observation: Slow breathing [3, 9]: --
Clinical observation: Normal ([3]; animal 8, 100 mg/kg IV, all times 10 min to day 8): x
Clinical observation: Normal ([3]; animal 9, 200 mg/kg IV, all times 10 min to day 8): x
Clinical observation: Normal ([3]; animal 10, 200 mg/kg IV, all times 10 min to day 8): x
Clinical observation: FPSR [3, 10]: x
Clinical observation: Hypoactivity [3, 10]: x
Clinical observation: Normal [3, 10]: --
Clinical observation: Slow breathing [3, 10]: x
Clinical observation: FPSR [3, 11]: --
Clinical observation: Hypoactivity [3, 11]: --
Clinical observation: Normal [3, 11]: x
Clinical observation: Slow breathing [3, 11]: --
Clinical observation: Slow breathing ([3]; animal 12, 400 mg/kg IV, 10, 30, 60 min and days 2-8): --
Clinical observation: FPSR ([3]; animal 12, 400 mg/kg IV, 10 min): --
Clinical observation: Normal ([3]; animal 12, 400 mg/kg IV, 10 min and days 2-8): x
Clinical observation: FPSR ([3]; animal 12, 400 mg/kg IV, 30 min): x
Clinical observation: Normal ([3]; animal 12, 400 mg/kg IV, 30 min, 60 min, 5 hr): --
Clinical observation: FPSR ([3]; animal 12, 400 mg/kg IV, 60 min, 5 hr): x
Clinical observation: Slow breathing ([3]; animal 12, 400 mg/kg IV, 5 hr): x
Clinical observation: FPSR ([3]; animal 12, 400 mg/kg IV, days 2-8): --
Condition after Day 1 ([3]; drug-treated groups, Days 2 to 8): normal between Days 2 and 8
Survival for the duration of the study ([3]; single IV 1.5-400 mg/kg, 8 days): All mice survived for the duration of the study
No-effect level (NOEL) [4]: 100 mg/kg
MTD ([4]; read-out: maximum tolerated dose (MTD)): ≥ 400 mg/kg
